Values after ≈ are worked out from the molar mass of the structure shown.
Columns and labels:
Format in all cases: functional
[1] = test system: Mycobacterium tuberculosis; assay: Antitubercular activity against wild-type isoniazid-resistant Mycobacterium tuberculosis harboring katG mutant after 5 days by microplate alamar blue assay
[2] = test system: Mycobacterium tuberculosis; assay: Antitubercular activity against isoniazid and rifampicin-resistant Mycobacterium tuberculosis T113/09 harboring katG and rpoB mutant after 5 days by microplate alamar blue assay
[3] = test system: Mycobacterium tuberculosis; assay: Antitubercular activity against Mycobacterium tuberculosis SR 2571/0215 harboring katG mutant after 5 days by microplate alamar blue assay

| Structure (SMILES) | MIC [1] [µM] | MIC [2] [µM] | MIC [3] [µM] |
| --- | --- | --- | --- |
| CC(=O)Nc1ccc(Cl)cc1C(F)(F)C(=O)NNC(=O)c1ccncc1 | 136.6 (≈ 52.3 µg/mL) | – | – |
| CC(=O)Nc1ccccc1C(=O)C(=O)NNC(=O)c1ccncc1 | 19.2 (≈ 6.27 µg/mL) | 38.3 (≈ 12.5 µg/mL) | 38.3 (≈ 12.5 µg/mL) |
| CC(=O)Nc1ccccc1C(F)(F)C(=O)NNC(=O)c1ccncc1 | 143.7 (≈ 50.1 µg/mL) | 287.4 (≈ 100 µg/mL) | 287.4 (≈ 100 µg/mL) |
| CC(=O)Nc1ccc(F)cc1C(F)(F)C(=O)NNC(=O)c1ccncc1 | 130.9 (≈ 47.9 µg/mL) | – | – |
| O=C(CCl)Nc1ccccc1C(=O)C(=O)NNC(=O)c1ccncc1 | – | 34.7 (≈ 12.5 µg/mL) | 69.4 (≈ 25 µg/mL) |
| CC(=O)Nc1ccc(C)cc1C(F)(F)C(=O)NNC(=O)c1ccncc1 | 138.1 (≈ 50 µg/mL) | 276.2 (≈ 100 µg/mL) | >276.2 |
| CC(=O)Nc1ccc(C)cc1C(=O)C(=O)NNC(=O)c1ccncc1 | – | 36.7 (≈ 12.5 µg/mL) | 36.7 (≈ 12.5 µg/mL) |
| NNC(=O)c1ccncc1 [ISONIAZID] | >80 | 58.4 (≈ 8.01 µg/mL) | 116.8 (≈ 16 µg/mL) |

— ChEMBL document CHEMBL4196010, “New hydrazides derivatives of isoniazid against Mycobacterium tuberculosis: Higher potency and lower hepatocytotoxicity” (Eur J Med Chem, 2018)
